In patent US5043450A, “8-alkoxyquinolonecarboxylic acid and salts thereof” (priority 1986, dated 1991):
Read-outs that look alike come from different tables or passages of the source.

What was measured:
Assay type in all cases: cell-based
S. pyogenes IID 692 = assay: Antibacterial spectra, MIC; conditions: Streptococcus pyogenes, IID692
[1] = tested on: Peptostreptococcus anaerobius KYA 27337; assay: Antibacterial spectra, MIC
[2] = tested on: Eubacterium lentum GAI 5242; assay: Antibacterial spectra, MIC; conditions: Eggerthella lenta, GAI5242
[3] = tested on: Streptococcus pyogenes (S-8); assay: Antibacterial spectra, MIC; conditions: 10^6 cells/ml, Gram +
Description: (§1) The antibacterial test was carried out according to the method designated by Japan Society of Chemotherapy.

[4] = tested on: Proteus vulgaris IFO 3167; assay: Antibacterial spectra, MIC; conditions: IFO3167, 10^6 cells/ml, Gram -
Description: as §1

Shigella sonnei IID 969 = assay: Antibacterial spectra, MIC; conditions: IID969, 10^6 cells/ml, Gram -
Description: as §1

E. coli ML 4707 = assay: Antibacterial spectra, MIC; conditions: Escherichia coli, ML4707; 10^6 cells/ml; Gram -
Description: as §1

E. faecalis IID 682 = assay: Antibacterial spectra, MIC; conditions: Enterococcus faecalis, IID682; 10^6 cells/ml; Gram +
Description: as §1

[5] = tested on: Veillonella parvula KYA 10790; assay: Antibacterial spectra, MIC; conditions: KYA10790
[6] = tested on: Pseudomonas aeruginosa V-1; assay: Antibacterial spectra, MIC; conditions: V1
Bacilus subtilis PCI 219 = assay: Antibacterial spectra, MIC; conditions: Bacillus subtilis, PCI219
[7] = tested on: Citrobacter freundii IID 976; assay: Antibacterial spectra, MIC
[8] = tested on: Salmonella enteritidis IID 604; assay: Antibacterial spectra, MIC; conditions: Salmonella enterica
[9] = tested on: S. aureus IID 670 (Terajima); assay: Antibacterial spectra, MIC; conditions: Staphylococcus aureus, IID670
P. cepacia GIFU 518 = assay: Antibacterial spectra, MIC; conditions: Burkholderia cepacia, GIFU518
[10] = tested on: Fusobacterium mortiferum 4249; assay: Antibacterial spectra, MIC
B. fragilis 0558 = assay: Antibacterial spectra, MIC; conditions: Bacteroides fragilis
[11] = tested on: Acinetobacter anitratus IID 876; assay: Antibacterial spectra, MIC; conditions: Acinetobacter calcoaceticus, IID876
C. ramosum = assay: Antibacterial spectra, MIC; conditions: Thomasclavelia ramosa
B. fragilis 25285 = assay: Antibacterial spectra, MIC; conditions: Bacteroides fragilis
E. coli ATCC 10536 = assay: Antibacterial spectra, MIC; conditions: Escherichia coli, ATCC10536
K. pneumoniae 1-220S = assay: Antibacterial spectra, MIC; conditions: Klebsiella pneumoniae, 1220S
[12] = tested on: Yersinia enterocolitica IID 981; assay: Antibacterial spectra, MIC
F. varium KYA 8501 = assay: Antibacterial spectra, MIC; conditions: Fusobacterium varium, KYA8501; 10^6 cells/ml; Gram -; read-out: MIC
[13] = tested on: Escherichia coli NIHJ JC-2; assay: Antibacterial spectra, MIC; conditions: NIHJJC2
S. epidermidis IID 866 = assay: Antibacterial spectra, MIC; conditions: Staphylococcus epidermidis, IID866
[14] = tested on: Propionibacterium acens 11828; assay: Antibacterial spectra, MIC; conditions: 10^6 cells/ml, Gram +, read-out: MIC
S. aureus Smith = assay: Antibacterial spectra, MIC; conditions: Staphylococcus aureus
P. aeruginosa IFO 12689 = assay: Antibacterial spectra, MIC; conditions: Pseudomonas aeruginosa, IFO12689
B. distasonis 8503 = assay: Antibacterial spectra, MIC; conditions: Parabacteroides distasonis
Pst. micros UPI 5464-1 = assay: Antibacterial spectra, MIC; conditions: Parvimonas micra, UPI54641
[15] = tested on: B. thetaiotaomicron (0661); assay: Antibacterial spectra, MIC; conditions: Bacteroides thetaiotaomicron
F. necrophorum S-45 = assay: Antibacterial spectra, MIC; conditions: Fusobacterium necrophorum, S45
P. maltophilia GIFU 2491 = assay: Antibacterial spectra, MIC; conditions: Stenotrophomonas maltophilia, GIFU2491
P. mirabilis IID 994 = assay: Antibacterial spectra, MIC; conditions: Proteus mirabilis, IID994
[16] = tested on: Morganella morganii IID 602; assay: Antibacterial spectra, MIC
B. vulgatus KYA 29327 = assay: Antibacterial spectra, MIC; conditions: Phocaeicola vulgatus, KYA29327
[17] = tested on: Peptococcus magnus KY 017; assay: Antibacterial spectra, MIC; conditions: Finegoldia magna, KY017
[18] = tested on: Alcaligenes faecalis 0114002; assay: Antibacterial spectra, MIC
P. aeruginosa IID 1210 = assay: Antibacterial spectra, MIC; conditions: Pseudomonas aeruginosa, IID1210
[19] = tested on: Serratia marcescens IID 618; assay: Antibacterial spectra, MIC
[20] = tested on: Clostridium difficile I-E; assay: Antibacterial spectra, MIC; conditions: Clostridioides difficile
[21] = tested on: Staphylococcus aureus 209 P; assay: Antibacterial spectra, MIC
S. pneumoniae IID 552 = assay: Antibacterial spectra, MIC; conditions: Streptococcus pneumoniae, IID552
[22] = tested on: Klebsiella pneumoniae KY(GN)6445; assay: Antibacterial spectra, MIC
[23] = tested on: Enterobacter cloacae IID 977; assay: Antibacterial spectra, MIC
[24] = tested on: Bacteroides fragilis GM 7000; assay: Antibacterial spectra, MIC; conditions: GM7000
C. perfringens KYA 13123 = assay: microbe, parasite or virus in culture; conditions: Clostridium perfringens, KYA13123
[25] = 10^6 cells/ml, Gram +, read-out: MIC
[26] = 10^6 cells/ml, Gram -, read-out: MIC

Measured: MIC

COc1c(N2C[C@@H](N)[C@@H](C)C2)c(F)cc2c(=O)c(C(=O)O)cn(C3CC3)c12 (relative stereo) [Exp. 5, 7-(cis-3-amino-4-methyl-1-pyrrolidinyl)-1-cyclopropyl-6-fluoro-1,4-dihydro-8-methoxy-4-oxo-3-quinolinecarboxylic acid]
0.78 µg/mL: [6] | P. cepacia GIFU 518 | C. ramosum | P. aeruginosa IFO 12689 | P. aeruginosa IID 1210
≤ 0.05 µg/mL: [2]
0.2 µg/mL: [1]; KYA27337 | [5] | [10] | Pst. micros UPI 5464-1 | F. necrophorum S-45 | B. vulgatus KYA 29327 | [18]
0.39 µg/mL: B. distasonis 8503 | [20]
0.1 µg/mL: S. pyogenes IID 692 | [3] | E. faecalis IID 682 | B. fragilis 0558 | B. fragilis 25285 | S. epidermidis IID 866 | [15] | P. maltophilia GIFU 2491 | [17] | S. pneumoniae IID 552 | [24]
0.05 µg/mL: [7]; IID976 | [8] | [9] | [11] | K. pneumoniae 1-220S | [12]; IID981 | S. aureus Smith | P. mirabilis IID 994 | [16]; IID602 | [19]; IID618 | [23]; IID977
1.56 µg/mL: F. varium KYA 8501 | [14]
0.0125 µg/mL: Bacilus subtilis PCI 219 | E. coli ATCC 10536 | [13]
0.025 µg/mL: [4] | Shigella sonnei IID 969 | E. coli ML 4707 | [21] | [22]

COc1c(N2CCN(C)CC2)c(F)cc2c(=O)c(C(=O)O)cn(C3CC3)c12 [Exp. 2, 1-cyclopropyl-6-fluoro-1,4-dihydro-8-methoxy-7-(4-methyl-1-piperazinyl)-4-oxo-3-quinolinecarboxylic acid]
3.13 µg/mL: C. ramosum
0.39 µg/mL: [5] | [6] | B. fragilis 25285 | C. perfringens KYA 13123 | B. distasonis 8503 | Pst. micros UPI 5464-1 | B. vulgatus KYA 29327 | [18] | [24]
0.78 µg/mL: [1]; KYA27337, 10^6 cells/ml, Gram +, read-out: MIC | [10]; [26] | F. necrophorum S-45; [26]
0.025 µg/mL: [4] | Shigella sonnei IID 969 | E. coli ML 4707 | Bacilus subtilis PCI 219 | E. coli ATCC 10536
0.1 µg/mL: [8]; [26] | [9]; [25] | [11]; [26] | K. pneumoniae 1-220S; [26] | [12]; IID981, 10^6 cells/ml, Gram -, read-out: MIC | S. epidermidis IID 866; [25] | S. aureus Smith; [25] | [16]; IID602, 10^6 cells/ml, Gram -, read-out: MIC | [19]; IID618, 10^6 cells/ml, Gram -, read-out: MIC | [21]; [25] | [23]; IID977, 10^6 cells/ml, Gram -, read-out: MIC
0.2 µg/mL: [2]; [25] | B. fragilis 0558; [26] | P. maltophilia GIFU 2491; [26] | [17]; [25]
6.25 µg/mL: F. varium KYA 8501 | [14]
0.0125 µg/mL: [13]
1.56 µg/mL: P. cepacia GIFU 518; [26] | P. aeruginosa IFO 12689; [26] | [15]; [26] | P. aeruginosa IID 1210; [26] | [20]; [25]
0.05 µg/mL: [7]; IID976, 10^6 cells/ml, Gram -, read-out: MIC | P. mirabilis IID 994; [26] | [22]; [26]
